Results as given in article PMC5573760 (Cancer Chemotherapy and Pharmacology, 2017).
“Also recorded” adds a separate entry of the source.

What was measured:
clinical = conditions: male, human, in vivo; for clearance: CL (total body clearance); for Tmax: t max; for half-life: t ½ (terminal half-life)
Experimental: (§1) All subjects gave written informed consent; the study was conducted at PRA Health Sciences (Zuidlaren, The Netherlands) in accordance with the Declaration of Helsinki and was approved by an accredited institutional ethics committee (Medisch Ethische Toetsings Commissie, Assen, The Netherlands).
(§2) Subjects remained fasting until 2-h after the end of the infusion. Volunteers stayed in-house until 14 days after the application and subsequently urine and feces were collected for 24-h on Day 16, 20, 27 and 34 if necessary, cf. below.
(§3) Urine was collected pre-dose, at 0–12-h and 12–24 h after the start of the infusion and thereafter over 24-h intervals on Day 2 to Day 14 as well as on Day 16, 20, 27 and 34 (±1 day). Cumulative 24-h fecal samples were collected from Day 1 (day of infusion) to Day 14 and as well as on Day 16, 20, 27 and 34 (±1 day). […] The excreted radioactivity between ambulant visits during the prolongation phase of the clinical study was calculated using interpolation to get a more realistic total excretion value of all subjects (see "Pharmacokinetic analysis").
All samples were frozen at −70 °C and analyzed within 60 days of sample collection.
(§4) For blood/plasma ratio determination, total radioactivity in urine and feces well as data from HPLC analysis data from radioactivity measurement by liquid scintillation counting (LSC) were considered. The amount of radioactivity recovered in the excreta (A E) was related to the administered radioactive dose to establish the radioactive balance. Arithmetic means and coefficients of variation (CV) were calculated for these percentages. […] Cumulative excretion was calculated as sum of the collection intervals. The elimination of the total radioactivity in urine and feces for time-points beyond day 14 was performed by log-linear extrapolation between analyzed time-points. Amounts of radioactivity excreted in urine and feces between two ambulant visits were calculated per interpolated day by linear interpolation of log-transformed excretion data separately per matrix (lnA E(interpolated day) = Δdays × [lnA E(Visit i + 1) − lnA E(Visit i)]/[day (Visit i + 1) − day (Visit i)] + lnA E(Visit i), with A E given as amount of radioactivity excreted in matrix per day and Δdays being the difference between the calculated day and the last available visit with A E > 0). In case no feces sample was provided on an ambulant visit, this visit was neglected for interpolation. A similar approach has been described earlier. The concentration/amount for each component of each sample/time-point was calculated by multiplying the total radioactivity concentration/amount of each sample with %-area of each component obtained after off-line HPLC separation. The amount of radioactivity in urine and feces at late time-points where no component was detected was distributed in the same percentage to the component (s) present at the time-point before.
Compartment-free analysis was performed employing WinNonlin software (version 5.3, Pharsight Certara, Princton, NJ, USA).
Pharmacokinetic parameters were evaluated by descriptive data analysis without formal hypothesis testing by calculating either medians (t max, t last) or geometric means and %CV (remaining parameters). Excretion data (urine, feces, total) were evaluated by arithmetic means.

[1] = assay type: in vivo, human
Experimental: as §1, §2, §3
After pooling and homogenization of urine and feces samples per time interval, aliquots were stored at −20 °C for total radioactivity determination and at −70°C for metabolic profiling (including blood/plasma samples). For determination of total radioactivity, samples were analyzed with a Perkin Elmer Tri-Carb™ 3100 TR liquid scintillation analyzer (Perkin Elmer, Waltham, MA, USA) with quenching correction. For metabolite profiling, plasma samples were treated with a mixture of acetonitrile (ACN) +0.2% acetic acid, after shaking and centrifugation, the supernatant was concentrated. Urine and feces samples were treated with solid-phase extraction (Waters HLB 30 mg, 1 mL, Waters, Milford, MA, USA) and liquid–liquid extraction (ACN + 0.2% trifluoroacetic acid/water, 80:20 volume/volume), respectively. Subsequently samples from plasma, urine and feces were analyzed by HPLC-LSC on Synergi Polar 4 µm 150 × 2 mm (Phenomenex, Aschaffenburg, Germany) with off-line radioactivity detection by Microbeta^2™ Plus liquid scintillation counter with Ultima Flo™ AP scintillation fluid (Packard Instrument BV, Groningen, The Netherlands).
as §4, with “interpolation.” for “interpolation. A similar approach has been described earlier. The concentration/amount for each component of each sample/time-point was calculated by multiplying the total radioactivity concentration/amount of each sample with %-area of each component obtained after off-line HPLC separation. The amount of radioactivity in urine and feces at late time-points where no component was detected was distributed in the same percentage to the component (s) present at the time-point before.”

[2] = Safety and tolerability assessment in healthy male volunteers; assay type: in vivo, human
Description: Physical examination, blood pressure, pulse rate, body temperature and body weight, laboratory parameters and 12-lead electrocardiogram (ECG), as well as adverse events using the common terminology criteria for adverse events (CTCAE) Version 4.03, were monitored throughout the study for safety assessment.

plasma protein = conditions: reversible; cited from earlier work
PI3K-α = conditions: cited from earlier work
PI3K-δ = conditions: cited from earlier work
[3] = whole blood, range of 6 subjects

COc1c(OCCCN2CCOCC2)ccc2c1N=C(NC(=O)c1cnc(N)nc1)N1CCN=C21 [Copanlisib, copanlisib]
AUC (0–t last) of total radioactivity (%) covered by the component, average (clinical): about 84%
CL (total body clearance), geometric mean (%CV) (clinical; iv): 24.8 (41.3%) L/h
t ½ (terminal half-life), geometric mean (%CV) (clinical; iv): 52.1 (20.9%) h
t ½ (terminal half-life), range (clinical; iv): 40.4 to 67.5 h
clearance (clinical; iv, geometric mean (%CV)): ~413 mL/min
clearance (clinical; iv, range): 237 to 680 mL/min
Vd (clinical; iv, V z (volume of distribution during terminal phase), geometric mean (%CV)): ~1870 L
Vd (clinical; iv, V z, range): 1250 to 2450 L
Tmax (clinical; iv, median): 1 h
Tmax (clinical; iv, range): 0.5 to 1 h
half-life (clinical; iv, geometric mean (%CV)): 52 h
half-life (clinical; iv, range): 40 to 67 h
Total radioactivity AUC (0–t last) in blood, geometric mean (% CV) ([1]; in vivo): 558 (28.8%) ng-Eq·h/mL
Total radioactivity AUC (0–t last) in blood, range ([1]; in vivo): 347–756 ng-Eq·h/mL
Total radioactivity AUC (0–t last) in plasma, geometric mean (% CV) ([1]; in vivo): 324 (54.1%) ng-Eq·h/mL
Total radioactivity AUC (0–t last) in plasma, range ([1]; in vivo): 150–601 ng-Eq·h/mL
Total radioactivity t last in plasma, median ([1]; plasma): 60 h
Total radioactivity t max in plasma, median ([1]; plasma): 1 h
Recovery of radioactivity extractable from plasma ([1]; plasma extraction, no indication of covalent adduct formation): > 90%
Total radioactivity C max in plasma, geometric mean (% CV) ([1]; plasma, 12 mg copanlisib (2.76 MBq 14C) 1-h infusion): 45.6 (26.0%) ng-Eq/mL
Total radioactivity C max in plasma, range ([1]; plasma, range of 6 subjects): 32.1–57.6 ng-Eq/mL
Total radioactivity t last in plasma, range ([1]; plasma, range of 6 subjects): 24 to 96 h
Total radioactivity t max in plasma, range ([1]; plasma, range of 6 subjects): 0.5 to 1 h
Total radioactivity C max in blood, geometric mean (% CV) ([1]; whole blood): 83.5 (26.3%) ng-Eq/mL
Total radioactivity t last in blood, median ([1]; whole blood): 72 h
Total radioactivity t max in blood, median ([1]; whole blood): 1 h
Total radioactivity C max in blood, range [1, 3]: 59.2–114 ng-Eq/mL
Total radioactivity t last in blood, range [1, 3]: 36 to 72 h
Total radioactivity t max in blood, range [1, 3]: 0.5 to 1 h
Adverse events related to copanlisib ([2]; 12 mg, 6 healthy subjects): Three mild-to-moderate gastrointestinal adverse events
Subjects with TEAEs assessed as related to the study drug ([2]; abdominal pain, diarrhea and nausea): 2
Total number of gastrointestinal TEAEs ([2]; abdominal pain, nausea, flatulence, frequent bowel movements, diarrhea): 5
Neutrophils and leukocytes ([2]; all 6 healthy volunteers, all above 2/3 of the lower limit for normal values): transient decrease
Other laboratory values, ECG or vital signs ([2]; human, in vivo): No clinically relevant changes
Tolerability ([2]; single i.v. dose of 12 mg copanlisib, 6 healthy subjects): well tolerated
Deaths or serious adverse events ([2]; single i.v. dose of 12 mg, 6 healthy subjects): No death or SAEs; also recorded: without any serious adverse event
Volunteers with at least one treatment emergent adverse event (TEAE) ([2]; single i.v. dose of 12 mg, 6 volunteers): Three out of the 6
free fraction (fraction unbound in plasma), plasma protein binding (plasma protein): 15.8%
PI3K-α inhibitory activity (PI3K-α): predominant PI3K-α and PI3K-δ inhibitory activity
PI3K-δ inhibitory activity (PI3K-δ): predominant PI3K-α and PI3K-δ inhibitory activity
